Source: ChEMBL document CHEMBL5376026, “Design, synthesis, and antiproliferative evaluation of novel dehydroabietic acid-1,2,3-triazole-oxazolidinone hybrids” (RSC Med Chem, 2024)
Structures can show the parent of a compound that is named as a salt.

How the values were obtained:
[1] = tested on: HepG2; test: Anticancer activity against human HepG2 cells assessed as inhibition of cell growth incubated for 48 hrs by MTT assay; format: functional, cell-based; conditions: HepG2, 48 h
[2] = tested on: T-24; test: Anticancer activity against human T-24 cells assessed as inhibition of cell growth incubated for 48 hrs by MTT assay; format: functional, cell-based; conditions: T-24, 48 h
[3] = tested on: HeLa; test: Anticancer activity against human HeLa cells assessed as inhibition of cell growth incubated for 48 hrs by MTT assay; format: functional, cell-based
[4] = Cytotoxicity against human LO2 cells assessed as reduction in cell viability incubated for 48 hrs by MTT assay; format: toxicity, cell-based, L02
[5] = tested on: MGC-803; test: Anticancer activity against human MGC-803 cells assessed as inhibition of cell growth incubated for 48 hrs by MTT assay; format: functional, cell-based; conditions: MGC-803, 48 h

IC50 [1]	IC50 [3]	IC50 [5]	Structure (SMILES)	IC50 [2]	IC50 at 48 h [4]
24.7 µM	32.8 µM	25.8 µM	CC(C)c1ccc2c(c1)CC[C@H]1[C@](C)(C(=O)OCc3cn(CC4CN(c5cccc(F)c5)C(=O)O4)nn3)CCC[C@]21C (stereo not given in full)	62.1 µM	29.1 µM
13.6 µM	14 µM	11 µM	CC(C)c1ccc2c(c1)CC[C@H]1[C@](C)(C(=O)OCc3cn(CC4CN(c5ccccc5Cl)C(=O)O4)nn3)CCC[C@]21C (stereo not given in full)	70.4 µM	21.4 µM
77.1 µM	15 µM	24.5 µM	CC(C)c1ccc2c(c1)CC[C@H]1[C@](C)(C(=O)OCc3cn(CC4CN(c5ccccc5[N+](=O)[O-])C(=O)O4)nn3)CCC[C@]21C (stereo not given in full)	27.5 µM	76.4 µM
47.9 µM	6.94 µM	17.6 µM	CC(C)c1ccc2c(c1)CC[C@H]1[C@](C)(C(=O)OCc3cn(CC4CN(c5cccc(Cl)c5)C(=O)O4)nn3)CCC[C@]21C (stereo not given in full)	> 100 µM	23.9 µM
12.6 µM	20.5 µM	21.6 µM	CC(C)c1ccc2c(c1)CC[C@H]1[C@](C)(C(=O)OCc3cn(CC4CN(c5cccc(Br)c5)C(=O)O4)nn3)CCC[C@]21C (stereo not given in full)	42.6 µM	47.6 µM
18 µM	36.1 µM	12.8 µM	CC(C)c1ccc2c(c1)CC[C@H]1[C@](C)(C(=O)OCc3cn(CC4CN(c5ccccc5)C(=O)O4)nn3)CCC[C@]21C (stereo not given in full)	> 100 µM	20.8 µM
23.5 µM	59.5 µM	24.7 µM	Cc1cccc(N2CC(Cn3cc(COC(=O)[C@]4(C)CCC[C@]5(C)c6ccc(C(C)C)cc6CC[C@@H]45)nn3)OC2=O)c1 (stereo not given in full)	44.5 µM	51.5 µM
15.6 µM	6.44 µM	12.6 µM	Cc1ccccc1N1CC(Cn2cc(COC(=O)[C@]3(C)CCC[C@]4(C)c5ccc(C(C)C)cc5CC[C@@H]34)nn2)OC1=O (stereo not given in full)	17.1 µM	67.3 µM
67.8 µM	30.9 µM	6.47 µM	CC(C)c1ccc2c(c1)CC[C@H]1[C@](C)(C(=O)OCc3cn(CC4CN(c5ccccc5Br)C(=O)O4)nn3)CCC[C@]21C (stereo not given in full)	9.62 µM	20.3 µM
20.2 µM	16.6 µM	20.7 µM	CC(C)c1ccc2c(c1)CC[C@H]1[C@](C)(C(=O)OCc3cn(CC4CN(c5ccccc5F)C(=O)O4)nn3)CCC[C@]21C (stereo not given in full)	> 100 µM	48.2 µM

Second part, the molecule before the results:

Structure (SMILES)	IC50 [1]	IC50 [3]	IC50 [5]	IC50 [2]	IC50 at 48 h [4]
CC(C)c1ccc2c(c1)CC[C@H]1[C@](C)(C(=O)OCc3cn(CC4CN(c5cccc([N+](=O)[O-])c5)C(=O)O4)nn3)CCC[C@]21C (stereo not given in full)	13 µM	30.9 µM	21.2 µM	> 100 µM	25.9 µM
CC(C)c1ccc2c(c1)CC[C@H]1[C@](C)(C(=O)OCc3cn(CC4CN(c5ccc(N6CCOCC6)c(F)c5)C(=O)O4)nn3)CCC[C@]21C (stereo not given in full)	28.7 µM	36.6 µM	26.1 µM	63.6 µM	> 100 µM
COc1ccc(N2CC(Cn3cc(COC(=O)[C@]4(C)CCC[C@]5(C)c6ccc(C(C)C)cc6CC[C@@H]45)nn3)OC2=O)cc1 (stereo not given in full)	31 µM	7.76 µM	7.16 µM	18.8 µM	31.1 µM
CC(C)c1ccc2c(c1)CC[C@H]1[C@](C)(C(=O)O)CCC[C@]21C [DEHYDROABIETIC ACID]	80.4 µM	30.4 µM	> 100 µM	> 100 µM	> 100 µM
COc1cc(N2CC(Cn3cc(COC(=O)[C@]4(C)CCC[C@]5(C)c6ccc(C(C)C)cc6CC[C@@H]45)nn3)OC2=O)cc(OC)c1OC (stereo not given in full)	32.3 µM	16.6 µM	24.8 µM	12.2 µM	22.7 µM
CC(C)c1ccc2c(c1)CC[C@H]1[C@](C)(C(=O)OCc3cn(CC4CN(c5ccc(F)cc5)C(=O)O4)nn3)CCC[C@]21C (stereo not given in full)	45.8 µM	46.7 µM	12.7 µM	55.1 µM	41.6 µM
CC(C)c1ccc2c(c1)CC[C@H]1[C@](C)(C(=O)OCc3cn(CC4CN(c5ccc(F)c(F)c5)C(=O)O4)nn3)CCC[C@]21C (stereo not given in full)	32 µM	9.35 µM	17.4 µM	26.5 µM	23.4 µM
CC(C)c1ccc2c(c1)CC[C@H]1[C@](C)(C(=O)OCc3cn(CC4CN(c5ccc(Cl)cc5)C(=O)O4)nn3)CCC[C@]21C (stereo not given in full)	18.1 µM	24.7 µM	16.3 µM	36.4 µM	24.3 µM
Cc1ccc(N2CC(Cn3cc(COC(=O)[C@]4(C)CCC[C@]5(C)c6ccc(C(C)C)cc6CC[C@@H]45)nn3)OC2=O)cc1 (stereo not given in full)	26.8 µM	2.63 µM	11.1 µM	> 100 µM	71.7 µM
CC(C)c1ccc2c(c1)CC[C@H]1[C@](C)(C(=O)OCc3cn(CC4CN(c5ccc(N6CCOCC6)cc5)C(=O)O4)nn3)CCC[C@]21C (stereo not given in full)	23.9 µM	21.7 µM	22.4 µM	70.9 µM	21.4 µM
COc1cccc2c1C(=O)c1c(O)c3c(c(O)c1C2=O)C[C@@](O)(C(=O)CO)C[C@@H]3O[C@H]1C[C@H](N)[C@H](O)[C@H](C)O1 [DOXORUBICIN HYDROCHLORIDE]	3.43 µM	0.78 µM	2.4 µM	1.76 µM	23.5 µM
